One data set has as its system STAT3. The experiment in a line: STAT3 transcription inhibition test (reporter gene method, oncostatin M stimulation). It is filed as cell-based. To be noted: compound at 100 μM, STAT3 reporter HeLa stable cell line, oncostatin M 10 ng/mL, 4 hours; for inhibition at 100 µM: Homo sapiens, read-out: STAT3 transcription inhibitory activity (%). As for the experimental part: The inhibition of STAT3 transcription was evaluated by using STAT3 reporter HeLa stable cell line (Panomics Inc., catalog No. RC0003), a cell line for the reporter gene method, and performing the following method according to the appendix included therein.
STAT3 reporter HeLa stable cell line subcultured and maintained in a Dulbecco's modified Eagle's medium (DMEM) containing 10% fetal bovine serum, 100 units/mL penicillin, and 100 μg/mL streptomycin was inoculated at a concentration of 40000 cells/well to a 96-well plate (white) and attached to the plate by overnight incubation at 37° C. under 5% CO2. After addition of each evaluation compound adjusted to various concentrations (adjusted with a DMSO solution), the cells were precultured for 1 hour. Then, oncostatin M for activating STAT3 was added at a final concentration 10 ng/mL, and the cells were further cultured at 37° C. under 5% CO2 for 4 hours. Luciferase activity derived from the cells was determined using Steady-Glo Luciferase Assay System (Promega Corp.), and STAT3 transcriptional activity scores were calculated according to the following formula: STAT3 transcriptional activity score (%)=100×(Lchem−L0)/(LDMSO−L0) Lo: luminescence intensity obtained without stimulation with oncostatin M Lchem: luminescence intensity obtained by the addition of a test sample LDMSO: luminescence intensity obtained by the addition of only a solvent for dissolving a test sample

The subject of another data set is MDA-MB-435S. Kind of data set: MDA-MB-435S cell growth inhibitory activity. It is filed as cell-based. As to conditions: for inhibition at 20 µM: Homo sapiens, read-out: Cell growth inhibitory activity (%). Here is the method:
[…] Each well was washed three times with a medium. Then, after addition of 100 μL/well of a medium and 20 μL/well of CellTiter 96 AQueous One Solution Reagent (Promega Corp.), the cells were incubated at 37° C. for 2 hours in the presence of 5% CO2.

In data set [1] the test system is Human lymphoma SCC-3 cells. The experiment in a line: SCC-3 cell growth inhibition test (MTT method). The format is cell-based. To be noted: 72-hour culture, read-out: Cell growth inhibitory activity (IC50: μM). Here is the method: Simultaneously with cell inoculation, each test compound diluted to various concentrations with an RPMI medium was added to each well.
For orientation: Tetrazolium dyes change colour on reduction, which living cells bring about.

For data set [2], the system named is human lymphoma SCC-3 cells. The experiment in a line: Evaluation using human lymphoma-transplanted nude mice. To be noted: SCC-3 cancer-bearing nude mice; for T/C (%): tumor volume ratio vs control.
Protocol: 1×10^6 human lymphoma SCC-3 cells (containing Matrigel) were subcutaneously transplanted to the flank part of each 6-week-old male nude mouse (BALB/cA-nu/nu, CLEA Japan, Inc.). After the transplantation, the tumor volumes [major axis (mm) and minor axis (mm)] of the SCC-3 cancer-bearing mice were measured using an electronic vernier caliper (CD-10, Mitutoyo Corp.), and tumor volumes [mm^3: (major axis)x(minor axis)^2/2] were calculated. SCC-3 cancer-bearing mice whose tumor volume reached 50 to 300 mm^3 were selected and divided based on the tumor volumes into groups each containing 5 individuals. A test compound was suspended in a 0.5% methylcellulose solution and orally administered at a dose of 0.01 mL/g body weight once a day for 5 days (Day 0 (administration initiation day) to Day 4). To a control group, none was administered. The tumor volumes of the SCC-3 cancer-bearing mice were measured every day from the initiation of test compound administration to evaluate antitumor effect. The antitumor effect was assessed by calculating T/C (%) values according to the following formula:
V: tumor volume on every assay day
V0: tumor volume on the administration initiation day (V/V0 of the test compound group)/(V/V0 of the control group)×100
Where [3] appears, read: 40 mg/kg orally once a day for 5 days.
The mark [4] stands for this setting: 160 mg/kg orally once a day for 5 days.

Where two headings read alike, the source gives them in different places. Some results are limits rather than exact numbers.

Regarding `O=C(Nc1nnc(-c2ccco2)o1)c1cc(-c2ccccc2)nc2ccccc12` [Ia-1, N-[5-(2-furyl)-1,3,4-oxadiazol-2-yl]-2-phenyl-4-quinolinecarboxamide], the inhibition at 100 µM in the data set on STAT3 was determined as 54%. The inhibition at 20 µM in the data set on MDA-MB-435S (72 h) was found to be 89%. Moreover, the IC50 (usually the concentration that gives 50% inhibition) in data set [1] (Homo sapiens) stood at 5.9 µM. Also, in data set [2] (setting [3]), the “The number of deaths” value was 0/5 and the “T/C (%)” value was determined as 38%. In data set [2] (setting [4]), the “The number of deaths” value was 0/5 and the “T/C (%)” value was 40%.
On to `N#Cc1ccc(-c2cc(C(=O)Nc3nnc(-c4ccco4)o3)c3ccccc3n2)cc1` [Ia-17, 2-(4-cyanophenyl)-N-[5-(2-furyl)-1,3,4-oxadiazol-2-yl]-4-quinolinecarboxamide], for which, in the data set with STAT3, the inhibition at 100 µM was 80%. Besides, in the data set with MDA-MB-435S (compound at 20 μM, 72 hours), the inhibition at 20 µM came to 54%. In data set [1] (Homo sapiens), the IC50 was determined as 4.6 µM.
Taken in the same sequence, the figures for `O=C(Nc1nnc(-c2ccco2)o1)c1cc(-c2ccc(Cl)s2)nc2ccccc12` [Ia-19, 2-(5-chloro-2-thienyl)-N-[5-(2-furyl)-1,3,4-oxadiazol-2-yl]-4-quinolinecarboxamide] were 77%, 98% and 2.1 µM.
As to `O=C(Nc1nnc(-c2ccco2)o1)c1cc(-c2ccccc2)nc2ccc(Cl)cc12` [Ia-22, 6-chloro-N-[5-(2-furyl)-1,3,4-oxadiazol-2-yl]-2-phenyl-4-quinolinecarboxamide], the inhibition at 100 µM in the data set with STAT3 amounted to 76%. In the data set on MDA-MB-435S (compound at 20 μM, 72 hours), the inhibition at 20 µM amounted to 98%. In addition, in data set [1] (Homo sapiens), the IC50 came to 0.9 µM. In data set [2] (setting [3]), the “The number of deaths” value was 0/5 and the “T/C (%)” value was 56%.
Take `O=C(Nc1nnc(-c2ccco2)o1)c1cc(-c2ccccc2)nc2cc(Br)ccc12` [Ia-24, 7-bromo-N-[5-(2-furyl)-1,3,4-oxadiazol-2-yl]-2-phenyl-4-quinolinecarboxamide]: the inhibition at 100 µM with STAT3 came out at 72%. For the same compound, the inhibition at 20 µM in the data set with MDA-MB-435S (compound at 20 μM, 72 hours) amounted to 94%. In addition, the IC50 in data set [1] (Homo sapiens) is 1.9 µM.
Take `Cc1cccc2c(C(=O)Nc3nnc(-c4ccco4)o3)cc(-c3ccccc3)nc12` [Ia-25, N-[5-(2-furyl)-1,3,4-oxadiazol-2-yl]-8-methyl-2-phenyl-4-quinolinecarboxamide]: the inhibition at 100 µM in the data set with STAT3 worked out at 77%. Further, the IC50 in data set [1] (Homo sapiens) was determined as 6 µM.
For `Cc1cc(C)c2nc(-c3cccs3)cc(C(=O)Nc3nnc(-c4ccco4)o3)c2c1` [Ia-33, N-[5-(2-furyl)-1,3,4-oxadiazol-2-yl]-6,8-dimethyl-2-(2-thienyl)-4-quinolinecarboxamide], the inhibition at 100 µM with STAT3 came to 58%. In addition, in the data set on MDA-MB-435S (compound at 20 μM, 72 hours), the inhibition at 20 µM worked out at 79%. Further, the IC50 in data set [1] (Homo sapiens) is 1.3 µM.
On to `CCCCOc1cc(C(=O)Nc2nnc(-c3ccco3)o2)c2ccccc2n1` [Ia-35, 2-(1-butoxy)-N-[5-(2-furyl)-1,3,4-oxadiazol-2-yl]-4-quinolinecarboxamide], for which, in the data set on STAT3, the inhibition at 100 µM worked out at 57%. Also, the IC50 in data set [1] (Homo sapiens) is 5.6 µM.
For `CC(C)(C)OC(=O)c1cccc(-c2cc(C(=O)Nc3nnc(-c4ccco4)o3)c3ccccc3n2)c1` [Ia-44, 2-(3-tert-butoxycarbonylphenyl)-N-[5-(2-furyl)-1,3,4-oxadiazol-2-yl]-4-quinolinecarboxamide], the inhibition at 100 µM in the data set on STAT3 was above 100%. Moreover, in the data set with MDA-MB-435S (compound at 20 μM, 72 hours), the inhibition at 20 µM was found to be 99%. Besides, the IC50 in data set [1] (Homo sapiens) turned out to be 1.8 µM.
Regarding `O=C(Nc1nnc(-c2ccco2)o1)c1cc(-c2ccc(Cl)cc2)nc2ccccc12` [Ia-47, 2-(4-chlorophenyl)-N-[5-(2-furyl)-1,3,4-oxadiazol-2-yl]-4-quinolinecarboxamide], the inhibition at 100 µM in the data set on STAT3 was above 100%. Further, the inhibition at 20 µM with MDA-MB-435S (compound at 20 μM, 72 hours) is 82%. The IC50 in data set [1] (Homo sapiens) was 2 µM.
Taken in the same sequence, the figures for `O=C(Nc1nnc(-c2ccco2)o1)c1cc(-c2ccc([N+](=O)[O-])cc2)nc2ccccc12` [Ia-52, N-[5-(2-furyl)-1,3,4-oxadiazol-2-yl]-2-(4-nitrophenyl)-4-quinolinecarboxamide] were above 100%, 68% and 2.2 µM.
Turning to `CC(C)(C)OC(=O)c1ccc(-c2cc(C(=O)Nc3nnc(-c4ccco4)o3)c3ccccc3n2)cc1` [Ia-53, 2-(4-tert-butoxycarbonylphenyl)-N-[5-(2-furyl)-1,3,4-oxadiazol-2-yl]-4-quinolinecarboxamide], the inhibition at 100 µM in the data set with STAT3 is above 100%. The inhibition at 20 µM in the data set with MDA-MB-435S (compound at 20 μM, 72 hours) was 100%. Further, in data set [1] (Homo sapiens), the IC50 was 0.7 µM.
Taken in the same sequence, the figures for `O=C(Nc1nnc(-c2ccco2)o1)c1cc(-c2cccc3ccccc23)nc2ccccc12` [Ia-60, N-[5-(2-furyl)-1,3,4-oxadiazol-2-yl]-2-(1-naphthyl)-4-quinolinecarboxamide] were above 100%, 100% and 2.1 µM.
Take `O=C(Nc1nnc(-c2ccco2)o1)c1cc(/C=C/c2ccccc2)nc2ccccc12` [Ia-65, N-[5-(2-furyl)-1,3,4-oxadiazol-2-yl]-2-trans-styryl-4-quinolinecarboxamide]: in the data set on STAT3, the “STAT3 transcription inhibitory activity (%)” value is listed as above 100%. For the same compound, in the data set on MDA-MB-435S (compound at 20 μM, 72 hours), the “Cell growth inhibitory activity (%)” value amounted to 69%. Besides, the IC50 in data set [1] was determined as 2.6 µM.
For `O=C(Nc1nnc(-c2ccco2)o1)c1cc(-c2ccccc2)nc2ccc(F)cc12` [Ia-67, 6-fluoro-N-[5-(2-furyl)-1,3,4-oxadiazol-2-yl]-2-phenyl-4-quinolinecarboxamide], in the data set on STAT3, the inhibition at 100 µM is 90%. Also, the IC50 in data set [1] (Homo sapiens) is 2.1 µM.
With `Cc1ccc2nc(-c3ccccc3)cc(C(=O)Nc3nnc(-c4ccco4)o3)c2c1` [Ia-70, N-[5-(2-furyl)-1,3,4-oxadiazol-2-yl]-6-methyl-2-phenyl-4-quinolinecarboxamide], in the data set on STAT3, the inhibition at 100 µM is above 100%. Also, in the data set with MDA-MB-435S (compound at 20 μM, 72 hours), the inhibition at 20 µM was above 100%. Further, the IC50 in data set [1] (Homo sapiens) was 1.9 µM.
For the compound `O=C(Nc1nnc(-c2ccco2)o1)c1cc(-c2ccccc2)nc2ccc(OC(F)(F)F)cc12` [Ia-71, N-[5-(2-furyl)-1,3,4-oxadiazol-2-yl]-2-phenyl-6-trifluoromethoxy-4-quinolinecarboxamide], the inhibition at 100 µM in the data set with STAT3 was above 100%. Besides, the inhibition at 20 µM with MDA-MB-435S (72 h) came to 85%. In addition, in data set [1] (Homo sapiens), the IC50 was determined as 0.3 µM.
Turning to `O=C(Nc1nnc(-c2ccco2)o1)c1cc(-c2ccccc2)nc2cc(Cl)ccc12` [Ia-72, 7-chloro-N-[5-(2-furyl)-1,3,4-oxadiazol-2-yl]-2-phenyl-4-quinolinecarboxamide], the inhibition at 100 µM in the data set on STAT3 is above 100%. In addition, the IC50 in data set [1] (Homo sapiens) worked out at 2.2 µM.
Consider `O=C(Nc1nnc(-c2ccco2)o1)c1cc(-c2ccccc2)nc2c(Cl)cc(Cl)cc12` [Ia-74, 6,8-dichloro-N-[5-(2-furyl)-1,3,4-oxadiazol-2-yl]-2-phenyl-4-quinolinecarboxamide], for which, in the data set with STAT3, the inhibition at 100 µM was found to be 97%. The inhibition at 20 µM in the data set with MDA-MB-435S (compound at 20 μM, 72 hours) is 82%. Besides, the IC50 in data set [1] (Homo sapiens) was 0.7 µM.
On to `Cc1ccc(-c2cc(C(=O)Nc3nnc(-c4ccccc4)o3)c3ccccc3n2)cc1` [Ia-i, N-(5-phenyl-1,3,4-oxadiazol-2-yl)-2-(4-tolyl)-4-quinolinecarboxamide], for which, in the data set on STAT3, the inhibition at 100 µM was found to be 85%. The IC50 in data set [1] (Homo sapiens) was found to be 2.7 µM.

These data come from patent US8466290B2, “STAT3 inhibitor containing quinolinecarboxamide derivative as active ingredient” (Pharma IP General Incorporated Association, priority 2008, dated 2013).
